Experimental data published in patent US7501513B2, “Immunosuppressive effects of pteridine derivatives” (4 AZA Bioscience NV, priority 2003, dated 2009).

The compounds below were run on human TNF-α (assay: TNF-α assay: suppression of TNF-α production by LPS-stimulated PBMC (ELISA)). Details: Homo sapiens, PBMC; Table 2; LPS 1 μg/ml, 72 hours.
Assay type: cell-based
Description: (§1) Peripheral blood mononuclear cells (herein referred as PBMC), in response to stimulation by lipopolysaccharide (LPS), a gram-negative bacterial endotoxin, produce various […], in particular human TNF-α and IL-1 β. Inhibition of the activation of PBMC can therefore be measured by the level of suppression of the production of TNF-α or IL-1 β by PBMC in response to stimulation by LPS.
(§2) Such inhibition measurement was performed as follows: PBMC were isolated from heparinized peripheral blood by density gradient centrifugation over Lymphoprep (commercially available from Nycomed, Norway). LPS was then added to the PMBC suspension in complete medium (10^6 cells/ml) at a final concentration of 1 μg/ml. The pteridine derivative to be tested was added at different concentrations (0.1 μM, 1 μM and 10 μM) and the cells were incubated at 37° C. for 72 hours in 5% CO2. The supernatants were collected, then TNF-α and/or IL-1 β concentrations were measured with respectively an anti-TNF-α antibody or an anti-IL-1 β antibody in a sandwich ELISA (Duo Set ELISA human TNFα, commercially available from R&D Systems, United Kingdom). The calorimetric reading of the ELISA was measured by a Multiskan RC plate reader (commercially available from ThermoLabsystems, Finland) at 450 nm (reference wavelength: 690 nm). Data analysis was performed with Ascent software 2.6. (also from ThermoLabsystems, Finland): a standard curve (recombinant human TNFα) was drawn and the amount (pg/ml) of each sample on the standard curve was determined.
The % suppression of human TNFα production or human IL-1 β by the pteridine derivatives of the invention (drugs) was calculated using the formula: […]
as §1, with “(hereinafter LPS),” for “(LPS),”, “TNF-α.” for “TNF-α and IL-1 β.”, “TNF-α” for “TNF-α or IL-1 β”
as §2, with “TNF-α” for “TNF-α and/or IL-1 β”, “with” for “with respectively”, “anti-TNF-α” for “anti-TNF-α antibody or an anti-IL-1 β”, “TNF-α,” for “TNFα,”, “colorimetric” for “calorimetric”
The % suppression of human TNFα production by the pteridine derivatives of the invention (drugs) was calculated using the formula: […]

IC50 [µM]	Compound
4.5	CCOc1nc(N)nc2ncc(-c3ccc(OC)cc3)nc12 [Example 13, 2-amino-6-(p-methoxyphenyl)-4-ethoxy-pteridine]
> 10	CCOc1nc(N)nc2ncc(-c3ccccc3OC)nc12 [Example 14, 2-amino-6-(o-methoxyphenyl)-4-ethoxy-pteridine]
9.1	CC(C)Oc1nc(N)nc2ncc(-c3ccc(C(F)(F)F)cc3)nc12 [Example 36, 2-amino-6-(p-trifluoromethylphenyl)-4-isopropoxypteridine]
6.6	CC(C)Oc1nc(N)nc2ncc(-c3ccc(F)c(F)c3)nc12 [Example 37, 2-amino-6-(3,4-difluorophenyl)-4-isopropoxypteridine]
> 10	CCOc1ccc(-c2cnc3nc(N)nc(OC(C)C)c3n2)cc1 [Example 39, 2-amino-6-(p-ethoxyphenyl)-4-isopropoxypteridine]
6.3	CC(C)Oc1nc(N)nc2ncc(-c3ccc(C#N)cc3)nc12 [Example 42, 2-amino-6-(p-cyanophenyl)-4-isopropoxypteridine]

Same assay, conditions: Table 2; LPS 1 μg/ml, 72 hours

IC50 [µM]	Compound
4	CC(C)Oc1nc(N)nc2c1ncc[n+]2[O-] [Example 10, 2-amino-4-isopropoxypteridine-N^8-oxide]
6.2	COc1ccc(-c2cnc3nc(N)nc(OC(C)C)c3n2)cc1 [Example 38]

Same assay, conditions: Table 4; LPS 1 μg/ml, 72 hours

IC50 [µM]	Compound
5.5	CCOC(=O)CCC(=O)Nc1cccc(-c2cnc3nc(N)nc(N4CCOCC4)c3n2)c1 [Example 94, 2-amino-4-morpholino-6-(3-ethylsuccinylaminophenyl)pteridine]
0.9	CCOC(=O)CCCOc1ccc(-c2cnc3nc(N)nc(N4CCOCC4)c3n2)cc1 [Example 108, 2-amino-4-morpholino-6-(4-phenoxy-butyric acid ethyl ester) pteridine]
0.6	CCOC(=O)COc1ccc(-c2cnc3nc(N)nc(N4CCOCC4)c3n2)cc1 [Example 109, 2-amino-4-morpholino-6-(4-phenoxy-acetic acid ethyl ester) pteridine]
6.5	COc1ccc(-c2cnc3nc(N)nc(NCc4ccccc4)c3n2)cc1OC [Example 113]
0.5	COc1ccc(-c2cnc3nc(N)nc(N4CC=CCC4)c3n2)cc1OC [Example 117]

Each compound was assayed on Peripheral blood mononuclear cells (assay: Mixed lymphocyte reaction (MLR) test). Details: Homo sapiens, PBMC; Table 3; 50% suppression of the MLR.
Assay type: cell-based, human
Description: Pteridine derivatives were first dissolved (10 mM) in dimethylsulfoxide (hereinafter referred as DMSO) and further diluted in culture medium before use for the following in vitro experiments. The commercially available culture medium consisted of RPMI-1640+10% foetal calf serum (FCS). Some pteridine derivatives described the previous examples were tested in the following lymphocyte activation tests:
(§3) Peripheral blood mononuclear cells (hereinafter referred as PBMC) were isolated from heparinized peripheral blood by density gradient centrifugation over Lymphoprep (Nycomed, Maorstua, Norway). Allogeneic PBMC or Eppstein-Barr Virus-transformed human B cells [commercially available under the trade name RPMI1788 (ATCC name CCL156)] which strongly express B7-1 and B7-2 antigens were used as stimulator cells after irradiation with 30 Gy. MLR was performed in triplicate wells. After 5 days incubation at 37° C., 1 μCi [^3H]-thymidine was added to each cup. After a further 16 hours incubation, cells were harvested and counted in a β-counter. Inhibition of proliferation by a compound (drug) described in some of the previous examples was counted using the formula:
(§4) [formula] wherein cpm is the thymidine count per minute. The MLR assay is regarded by those skilled in the art as an in vitro analogue of the transplant rejection since it is based on the recognition of allogeneic major histocompatibility antigens on the stimulator leukocytes, by responding lymphocytes. Assays for CD3 and CD 28
Pteridine derivatives were first dissolved (10 mM) in dimethylsulfoxide (hereinafter referred as DMSO) and further diluted in culture medium before use for the following in vitro experiments. The commercially available culture medium consisted of RPMI-1640+10% foetal calf serum (FCS). Some pteridine derivatives described in the previous examples (as indicated in table 3 below) were tested in the following mixed lymphocyte reaction (MLR) assay.
as §3, with “CCL156)]which” for “CCL156)] which”
as §4, with “lymphocytes.” for “lymphocytes. Assays for CD3 and CD 28”

IC50 [µM]	Compound
4.1	Nc1cccc(-c2cnc3nc(N)nc(N4CCOCC4)c3n2)c1 [Example 75, 2-amino-4-morpholino-6-(3-aminophenyl)pteridine]
2.1	Nc1nc(N2CCOCC2)c2nc(-c3ccc(NC(=O)c4ccccc4)cc3)cnc2n1 [Example 76, 2-amino-4-morpholino-6-(4-benzoylaminophenyl)pteridine]
2.5	Nc1nc(N2CCOCC2)c2nc(-c3ccc(NC(=O)COc4ccccc4)cc3)cnc2n1 [Example 77, 2-amino-4-morpholino-6-(4-phenoxyacetylaminophenyl)pteridine]
6.5	CCC(=O)Nc1ccc(-c2cnc3nc(N)nc(N4CCOCC4)c3n2)cc1 [Example 78, 2-amino-4-morpholino-6-(4-propionylaminophenyl)pteridine]
4.1	Nc1nc(N2CCOCC2)c2nc(-c3ccc(NC(=O)C4CCCCC4)cc3)cnc2n1 [Example 80, 2-amino-4-morpholino-6-(4-cyclohexanoylaminophenyl)pteridine]
3.9	Nc1nc(N2CCOCC2)c2nc(-c3ccc(NC(=O)c4ccncc4)cc3)cnc2n1 [Example 83, 2-amino-4-morpholino-6-(4-isonicotinoylaminophenyl)pteridine]
4.9	Nc1nc(N2CCOCC2)c2nc(-c3cccc(NC(=O)c4ccccc4)c3)cnc2n1 [Example 88, 2-amino-4-morpholino-6-(3-benzoylaminophenyl)pteridine]
0.8	Nc1nc(N2CCOCC2)c2nc(-c3cccc(NS(=O)(=O)c4ccccc4)c3)cnc2n1 [Example 89, 2-amino-4-morpholino-6-(3-benzensulfonylaminophenyl)pteridine]
10	Nc1nc(N2CCOCC2)c2nc(-c3cccc(NC(=O)COc4ccccc4)c3)cnc2n1 [Example 90, 2-amino-4-morpholino-6-(3-phenoxyacetylaminophenyl)pteridine]
10	Nc1nc(N2CCOCC2)c2nc(-c3cccc(NC(=O)c4ccncc4)c3)cnc2n1 [Example 91, 2-amino-4-morpholino-6-(3-isonicotinoylaminophenyl)pteridine]
2.9	Nc1nc(N2CCOCC2)c2nc(-c3cccc(NC(=O)C4CCCCC4)c3)cnc2n1 [Example 92, 2-amino-4-morpholino-6-(3-cyclohexanoylaminophenyl)pteridine]
4.1	Nc1nc(N2CCOCC2)c2nc(-c3cccc(NC(=O)COCc4ccccc4)c3)cnc2n1 [Example 96, 2-amino-4-morpholino-6-(3-benzyloxyacetylaminophenyl)pteridine]
5.4	COCCOc1ccc(-c2cnc3nc(N)nc(N4CCOCC4)c3n2)cc1 [Example 110, 2-amino-4-morpholino-6-(4-(2-methoxyethoxy)-phenyl)pteridine]

Same assay, conditions: Table 3; 50% suppression of the MLR

IC50 [µM]	Compound
0.8	COc1ccc(-c2cnc3nc(NCc4cccs4)nc(NCc4cccs4)c3n2)cc1OC [Example 68, 2,4-di-(thienyl-2-methylamino)-6-(3,4-dimethoxy-Phenyl) pteridine]
6.4	CC(=O)Nc1cccc(-c2cnc3nc(N)nc(N4CCOCC4)c3n2)c1 [Example 73, 2-amino-4-morpholino-6-(3-acetanilide)pteridine]
7.8	Nc1nc(N2CCOCC2)c2nc(-c3ccc(NC(=O)c4ccco4)cc3)cnc2n1 [Example 79, 2-amino-4-morpholino-6-(4-furoylaminophenyl)pteridine]
4	Nc1nc(N2CCOCC2)c2nc(-c3ccc(NC(=O)c4cccc5ccccc45)cc3)cnc2n1 [Example 84, 2-amino-4-morpholino-6-(4-naphtoylaminophenyl)pteridine]
4.1	CC(C)(C)OC(=O)N[C@H](Cc1ccccc1)C(=O)Nc1cccc(-c2cnc3nc(N)nc(N4CCOCC4)c3n2)c1 [Example 99, 2-amino-4-morpholino-6-[3-Boc-(D)-phenylalanine-aminophenyl]pteridine]
